In the supplement of paper PMC8253809:

Assays:
Test in all cases: area under dose-response curve of % growth inhibition (log2 RLU vs DMSO / staurosporine), 1e-11 to 1e-4 M (% x log10 M); higher = more growth inhibition
HGGX42 = system: HGGX42 (H3.3 G34R paediatric high-grade glioma line)
How it was run: (§1)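 On 1% Geltrex-coated 384-well plates, patient-derived pHGG/DIPG cell lines and astrocytes were treated in triplicate across 10 threefold dilutions (mean top concentration 35 μM) for 7 days, with iAstro treated for 3 days, at 37 °C, 5% CO2. Log2-transformed CellTiter-Glo luminescence was normalised per plate to % activity between solvent and positive controls. Area under the curve was obtained by the trapezoid rule from a log-logistic fit, or from a smoothing spline when that fit failed.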

HGGX39 = system: HGGX39 (paediatric high-grade glioma line)
How it was run: as §1

SUDIPGVI = system: SUDIPGVI (diffuse intrinsic pontine glioma line)
How it was run: as §1

HGGX2 = system: HGGX2 (paediatric high-grade glioma line)
How it was run: as §1

SUDIPGXXI = system: SUDIPGXXI (diffuse intrinsic pontine glioma line)
How it was run: as §1

iAstro = system: iAstro (astrocyte control)
How it was run: as §1

SUDIPGXIX = system: SUDIPGXIX (diffuse intrinsic pontine glioma line)
How it was run: as §1

DIPGX7 = system: DIPGX7 (H3.3 K27M diffuse intrinsic pontine glioma line)
How it was run: as §1

DIPGX29 = system: DIPGX29 (H3.3 K27M diffuse intrinsic pontine glioma line)
How it was run: as §1

SUDIPGXVII = system: SUDIPGXVII (diffuse intrinsic pontine glioma line)
How it was run: as §1

SUDIPGIV = system: SUDIPGIV (diffuse intrinsic pontine glioma line)
How it was run: as §1

Structure (SMILES) | area under dose-response curve (HGGX42) | area under dose-response curve (HGGX39) | area under dose-response curve (SUDIPGVI) | area under dose-response curve (HGGX2) | area under dose-response curve (SUDIPGXXI) | area under dose-response curve (iAstro) | area under dose-response curve (SUDIPGXIX) | area under dose-response curve (DIPGX7) | area under dose-response curve (DIPGX29) | area under dose-response curve (SUDIPGXVII) | area under dose-response curve (SUDIPGIV)
CC(C)(C)c1cnc(CSc2cnc(NC(=O)C3CCNCC3)s2)o1 | 216 | 171 | 196 | 130 | 320 | 55.9 | 245 | 208 | 185 | 199 | 221
c1ccc2c(-c3cnn4cc(-c5ccc(N6CCNCC6)cc5)cnc34)ccnc2c1 | 171 | 147 | 166 | 185 | 291 | 137 | 187 | 183 | 165 | 172 | 171
COc1ccc(C[C@H](NC(=O)[C@H](C)NC(=O)CN2CCOCC2)C(=O)N[C@@H](Cc2ccccc2)C(=O)C2(C)CO2)cc1 (stereo in doubt) [ONX-0914] | 186 | 209 | 233 | 277 | 328 | 243 | 245 | 220 | 156 | 175 | 255
CCN1CCN(Cc2ccc(Nc3ncc(F)c(-c4cc(F)c5nc(C)n(C(C)C)c5c4)n3)nc2)CC1 [ABEMACICLIB] | 83.9 | 193 | 102 | 120 | 252 | 161 | 248 | 233 | 107 | 123 | 156
CN(C)C/C=C/C(=O)Nc1cc2c(Nc3ccc(F)c(Cl)c3)ncnc2cc1O[C@H]1CCOC1 [AFATINIB] | 108 | 99.2 | 130 | 115 | 168 | 80.2 | 123 | 108 | 110 | 87.7 | 90.9
COCC1(CO)C(=O)C2CCN1CC2 (centres undefined) [APR-246] | 72 | 13 | 72.7 | 69.5 | 177 | 82.7 | 74.8 | 79.7 | 90.6 | 87.2 | 85.3
O=C(Nc1c[nH]nc1-c1nc2ccc(CN3CCOCC3)cc2[nH]1)NC1CC1 [AT9283] | 178 | 186 | 97.6 | 87.8 | 310 | 42.3 | 184 | 143 | 150 | 128 | 167
CC(=O)OC[C@H]1O[C@@H]([S-])[C@H](OC(C)=O)[C@@H](OC(C)=O)[C@@H]1OC(C)=O.CCP(CC)CC.[Au+] [AURANOFIN] | 243 | 165 | 202 | 248 | 323 | 196 | 219 | 228 | 232 | 169 | 198
COC(=O)[C@]12CCC(C)(C)C[C@H]1[C@H]1C(=O)C=C3[C@@]4(C)C=C(C#N)C(=O)C(C)(C)[C@@H]4CC[C@@]3(C)[C@]1(C)CC2 [BARDOXOLONE METHYL] | 203 | 185 | 155 | 181 | 231 | 189 | 207 | 221 | 189 | 173 | 201
CN1[C@@H]2CC[C@H]1C[C@@H](OC(=O)c1cc(Cl)cc(Cl)c1)C2 [BEMESETRON] | 119 | 85.8 | 15.4 | 64 | 166 | 35.7 | 65.3 | 112 | 101 | 39.9 | 93.7
CC(C)(C)OC(=O)Nc1ccc(-c2cc(C(=O)NCCCCCCC(=O)NO)no2)cc1 [BML-281] | 49 | 94.4 | 65.9 | 92 | 212 | 61.4 | 87.7 | 111 | 85.5 | 63.9 | 104
CC(C)C[C@H](NC(=O)[C@H](CCc1ccccc1)NC(=O)CN1CCOCC1)C(=O)N[C@@H](Cc1ccccc1)C(=O)N[C@@H](CC(C)C)C(=O)[C@@]1(C)CO1 [CARFILZOMIB] | 213 | 239 | 259 | 344 | 649 | 379 | 294 | 303 | 171 | 249 | 320
CC(=O)c1ccc2c(c1)c1cc(C(C)=O)ccc1n2CCNC(C)C [CBL-0137] | 154 | 148 | 109 | 134 | 277 | 57.3 | 223 | 137 | 135 | 129 | 156
O=C(Nc1ccc(Nc2nccc(Nc3cc(C4CCCC4)[nH]n3)n2)cc1)Nc1cccc(C(F)(F)F)c1 [CD532] | 271 | 200 | 272 | 246 | 352 | 213 | 283 | 282 | 221 | 247 | 276
NC1CCC(Nc2cc(-c3cccc(NCc4cccc(F)c4)n3)c(Cl)cn2)CC1 (centres undefined) [CDK9-IN-2] | 230 | 172 | 209 | 181 | 326 | 135 | 254 | 249 | 206 | 232 | 243
Cc1noc2c1-c1ccccc1C(c1ccc(Cl)cc1)=N[C@H]2CC(N)=O [CPI-0610] | 110 | 110 | 121 | 98.6 | 251 | 67 | 156 | 105 | 99.5 | 88.9 | 114
C[C@@H](Oc1cc(-c2cnn(C3CCNCC3)c2)cnc1N)c1c(Cl)ccc(F)c1Cl [CRIZOTINIB] | 117 | 64 | 112 | 107 | 200 | 78 | 123 | 91.9 | 87.6 | 87 | 96.9
COc1ccc(-c2nc(N3CCOCC3)c3sc(CN(C)c4ncc(C(=O)NO)cn4)cc3n2)cn1 [CUDC-907] | 315 | 325 | 290 | 298 | 470 | 181 | 346 | 294 | 298 | 294 | 319
CN1CCCN(C(=O)c2cccc(-c3ccc(/C=C4/C(=O)Nc5ccc(Cl)cc54)o3)c2)CC1 [CX-6258] | 184 | 139 | 130 | 162 | 330 | 168 | 162 | 157 | 179 | 137 | 165
COc1cccc2c1C(=O)c1c(O)c3c(c(O)c1C2=O)C[C@@](O)(C(=O)CO)C[C@@H]3O[C@H]1C[C@H](N)[C@H](O)[C@H](C)O1 [DOXORUBICIN] | 260 | 174 | 159 | 168 | 420 | 78.3 | 294 | 213 | 169 | 195 | 255
CCCCc1oc2ccc(NS(C)(=O)=O)cc2c1C(=O)c1ccc(OCCCN(CCCC)CCCC)cc1 [DRONEDARONE] | 165 | 108 | 105 | 136 | 225 | 134 | 137 | 194 | 148 | 119 | 149
CCCc1cc(C)[nH]c(=O)c1CNC(=O)c1cc(-c2ccnc(N3CCN(C)CC3)c2)cc2c1cnn2C(C)C [GSK343] | 98.2 | 12.1 | 66.2 | 88.2 | 102 | 58.3 | 122 | 71.6 | 78.7 | 12.3 | 51.3
CCOC(=O)CCNc1cc(N2CCc3ccccc3CC2)nc(-c2ccccn2)n1 [GSK-J4] | 87.1 | 62.2 | 52.4 | 100 | 213 | 97.7 | 104 | 46.8 | 80.7 | 54.8 | 62
O=C(c1ccc(Nc2nccc(-c3cc4ccccc4s3)n2)cc1)N1CCC(N2CCCC2)CC1 [IKK 16] | 187 | 137 | 111 | 146 | 165 | 110 | 127 | 155 | 180 | 108 | 132
CC(C)C[C@H](NC(=O)CNC(=O)c1cc(Cl)ccc1Cl)B(O)O [IXAZOMIB] | 234 | 302 | 242 | 242 | 337 | 264 | 327 | 302 | 210 | 247 | 322
Cc1c(C2CCN(CCc3ccccc3)CC2)noc1-c1ccc(Cl)cc1 [L-741,742] | 90.7 | 96.9 | 36.1 | 35.6 | 145 | 41.1 | 22.6 | 118 | 100 | 40.3 | 91.7
C[C@@]12OC(=O)[C@]1([C@@H](O)[C@@H]1C=CCCC1)NC(=O)[C@@H]2CCCl [MARIZOMIB] | 163 | 241 | 331 | 337 | 422 | 375 | 229 | 251 | 100 | 108 | 407
C=CCn1c(=O)c2cnc(Nc3ccc(N4CCN(C)CC4)cc3)nc2n1-c1cccc(C(C)(C)O)n1 [MK-1775] | 53.5 | 46.4 | 27.9 | 83 | 190 | 71.1 | 73.8 | 58.4 | 114 | 39.4 | 96
Nc1ccccc1NC(=O)c1ccc(CNc2nccc(-c3cccnc3)n2)cc1 [MOCETINOSTAT] | 115 | 133 | 184 | 165 | 319 | 70.7 | 147 | 147 | 144 | 155 | 175
